{
  "source": "patent US20040063681A1",
  "about": "“Methods for using gold (III) complexes as anti-tumor and anti-HIV agents” (priority 2002, published 2004)",
  "key": {"[1]": {"tested_on": "calf thymus DNA", "test": "Viscosity evaluation of DNA", "details": "(η/ηo)^1/3 vs binding ratio r", "text": "Viscosity evaluation. The binding interaction of the gold(III) porphyrins can be further investigated by examining the change of DNA viscosity upon binding of the metalloporphyrin. If the metalloporphyrin binds to DNA by intercalation, this would cause chain elongation, unwinding and stiffening of the DNA helix as a consequence of untwisting of the base pairs and helical backbone needed to accommodate the intercalator.\nFor comparison, the viscosity profiles for ethidium bromide (intercalator) and Hoechst 33342 (minor groove binder) are also shown is FIG. 10."}, "[2]": {"biological_target": "T1, HIV-1 reverse transcriptase (Human immunodeficiency virus type 1 group M subtype B, UniProt P04585)", "T1 construct": "treatment of HIV-1 RT in Lysis buffer (2 ng, 128.7 μL) with Complex 1j", "test": "HIV-1 reverse transcriptase activity, ELISA method", "type": "biochemical", "details": "ELISA; mean ± SE of at least three determinations; read-out: IC50 HIV-1 RT", "procedure": "HIV-1 reverse transcriptase activities were measured by an ELISA method (see Eberle et al, J. Virol. Methods, 40:347-356 (1992) performed by incubating the enzyme with digoxigenin-labeled deoxyuridin-5′-triphosphate (dUTP) and the biotin-labeled analogue during reverse transcription starting from the template/primer hybrid poly(A)•oligo(dT)15. After reverse transcription, the newly synthesized DNA was immobilized onto streptavidin-coated ELISA wells, and the incorporation of the dioxigenin-labeled dUTP was assayed by chemiluminescence method. For example, treatment of HIV-1 RT in Lysis buffer (2 ng, 128.7 μL) with Complex 1j (1.3 μL of […] stock solution) dissolved in TBS at 37° C. produced significant RT activity inhibition (˜95%) after 30 min incubation."}, "[3]": {"tested_on": "Human Promyelocytic Leukemia (HL-60)", "test": "MTT cytotoxicity, HL-60", "type": "cell-based", "details": "growth inhibition", "text": "(§1) Human promyelocytic leukemia (HL-60), human hepatocellular carcinoma (HepG2), Human cervix epitheloid carcinoma cells (HeLa) and human oral epidermoid carcinoma cells (KB-3-1), were obtained from American Type Culture Collection (ATCC) (Rockville, Md.). The multi-drug-resistant variant KB-V1 cell line was obtained by stepwise selections for vinblastine resistance as described by Shen et al., J. Biol. Chem. 261:7762-7770 (1986)], and was generously provided by Dr Michael Gottesman (NIH, Bethesda, Md.). Human nasopharyngeal carcinoma cells (SUNE1 and its cisplatin resistance variant, CNE1) were derived from poorly differentiated NPC in Chinese patients as described by Gu et al., Chin. J. Cancer 2:270-272 (1983), and were generously provided by Dr S. W. Tsao (The University of Hong Kong, Hong Kong, PRC). Cell culture flasks and 96 well microtitre plates were from Nalge Nunc hit. Culture medium, other medium constituents and phosphate buffered saline (PBS) were obtained from Gibco BRL (Rockville, Md.). Cell Proliferation Kit I (MTT) was purchased from Roche (Mannheim, Germany).\nThe anti-cancer activities of the gold(III) porphyrin complexes were evaluated toward some established human cancer cell lines: promyelocytic leukemia (HL-60), hepatocellular carcinoma (HepG2), cervix epitheloid carcinoma (HeLa), epidermoid carcinoma (KB-3-1) and its multi-drug resistant variant (KB-V1), nasopharyngeal carcinoma (SUNE1) and its cisplatin-resistant variant (CNE1). The experiments were carried out by following the MTT procedure (see Mosmann et al., J. Immunol. Methods 65:55-63 (1983). The IC50 values of the gold(III) porphyrin complexes together with that of cisplatin, and KAuCl4 are provided in Table 4a; and the IC50 values of the gold(III) Schiff-base and bis(pyridyl)carboxamide complexes are shown in Table 4b. The cytotoxicity profiles of some selected gold(III) porphyrin complexes toward SUNE1 and its cisplatin-resistant variant CNE1 are also shown in FIG. 7."}, "[4]": {"tested_on": "Human Oral Epidermoid Carcinoma (multi-drug resistance, KB-V-1)", "test": "MTT cytotoxicity, KB-V-1", "type": "cell-based", "details": "MTT, growth inhibition, multi-drug resistant", "text": "as §1\nThe anti-cancer activities of the gold(III) porphyrin complexes were evaluated toward some established human cancer cell lines: promyelocytic leukemia (HL-60), hepatocellular carcinoma (HepG2), cervix epitheloid carcinoma (HeLa), epidermoid carcinoma (KB-3-1) and its multi-drug resistant variant (KB-V1), nasopharyngeal carcinoma (SUNE1) and its cisplatin-resistant variant (CNE1)."}, "[5]": {"tested_on": "human lung fibroblast cells (CCD-19Lu)", "details": "MTT", "procedure": "Acute cytotoxicities of the gold(III) complexes to normal cells were evaluated using human lung fibroblast cells (CCD-19Lu) as model cell line. The percentages of cell survival at various doses of the gold complexes were determined by the MTT assay, and the toxicities profiles are shown in FIG. 15."}, "[6]": {"test": "Control UV-vis titration with sodium dodecyl sulfate instead of DNA", "type": "binding", "details": "sodium dodecyl sulfate (0-5 μM) instead of DNA", "text": "See Neidle, S. DNA structure and recognition; Oxford University Press: Oxford, 1994; 74-79."}, "[7]": {"test": "UV-vis stability study in buffer solution with and without glutathione", "type": "physicochemical", "details": "room temperature", "procedure": "UV-vis experiments. For UV-vis analysis, the absorption spectra of 2.5 μM (7 nmoles) of all studied complexes in (1:19) MeCN/Tris buffer solution was monitored over 72 h. […] The gold(III) solution was monitored over 48 h at room temperature and less than 10% decrease in the Soret band intensity was observed without any significant spectral shift in both the Soret and Q-bands.\nYet, no significant spectral shift and formation of new absorption bands were observed.\nThis finding confirms the excellent solution stability of 1j and 1k in physiologically related medium.\nThe precipitates are soluble in common organic solvent such as THF, CHCl3 and DMSO but insoluble in aqueous solution."}, "[8]": {"test": "1H-NMR stability experiments with GSH", "type": "physicochemical", "details": "72 h", "procedure": "^1H-NMR experiments. […] The pH was adjusted to 7.4 with NaOD, and the solution was degassed for 10 min by bubbling with nitrogen to minimize oxidation of GSH. Similar experimental setup was done for Complex 1j, except this analysis was carried out in D2O only. The electronic spectra of the resulting mixtures was then monitored for 72 h.\nIt is known that the chemical shifts of the pyrrolic protons are sensitive to the oxidation states of the gold center, and reduction of Au(III) to Au(I) or Au(0) is expected to be accompanied by spectral changes in the pyrrolic region.\nGlutathione can be oxidized to form a disulfide bridged dimer (GSSG) with a mild oxidizing agent such as gold(III) complex. A previous study by Sun et al., Eur. J. Biochem. 267:5450-5457 (2000) established that GSSG is characterized by a doublet absorption peak at δH 3.30 ppm, assignable to β-CH2 group as depicted in Scheme 5. Scheme 5. Characteristic proton resonance absorptions for (a) GSH and (b) GSSG in D2O [drawing 29]\nThe results of the NMR studies indicate that illustrative Complexes 1a-1k are stable under physiologically relevant conditions."}},
  "note": "Values joined by “and” are separate entries in the source; they are usually repeats but may differ in a detail not shown here. Equal values may be shown once.",
  "data": [
    {"compound": "C1=Cc2nc1c(-c1ccccc1)c1ccc([n-]1)c(-c1ccccc1)c1nc(c(-c3ccccc3)c3ccc([n-]3)c2-c2ccccc2)C=C1.[Au+3].[Cl-]", "note": "[Complex 1a]", "values": [
      {"measurement": "change in viscosity of the DNA", "setting": "[1]", "result": "no appreciable change in viscosity of the DNA"},
      {"measurement": "IC50", "setting": "[2]", "result": "28400 nM and 28000 nM"},
      {"measurement": "IC50", "setting": "[3]", "result": 730, "unit": "nM"},
      {"measurement": "IC50", "setting": "[4]", "result": 120, "unit": "nM"},
      {"measurement": "cell death", "setting": "[5]; CCD-19Lu, 2 μM", "result": 90, "unit": "%"},
      {"measurement": "IC50", "setting": "[5]; read-out: IC50 CCD-19Lu, mean ± SE of at least three determinations", "result": "910 ± 210", "unit": "nM"},
      {"measurement": "hypochromicity of the Soret band", "setting": "[6]", "result": 48, "unit": "%"},
      {"measurement": "decrease in the Soret band intensity", "setting": "[7]; 2.5 μM in Tris buffer/MeCN (19:1), 48 h", "result": "less than 10%"},
      {"measurement": "decrease of the Soret band intensity", "setting": "[7]; glutathione 2 mM in Tris buffer/MeCN=19:1, 48 h", "result": "about 27%"},
      {"measurement": "1H NMR spectral changes", "setting": "[8]; GSH (2 mM), D2O/CD3CN (9:1 v/v), room temperature", "result": "no significant spectral changes were observed"},
      {"measurement": "changes of 1H NMR spectral pattern in the aromatic region (δH 7.2-8.4 ppm)", "setting": "[8]; with GSH", "result": "did not observe any significant changes of the spectral pattern"}
    ]}
  ]
}
